The text below walks through data of patent US8101642B2, “3-substituted propanamine compounds” (SK Biopharmaceuticals Co., Ltd., priority 2008, dated 2012).

For assay [1], the target named is T1, human serotonin transporter (Homo sapiens, UniProt P31645).
T1 construct: expressed in transfected cells; host or cells: HEK-293
Kind of assay: Serotonin transporter reuptake inhibition assay ([3H]Serotonin uptake). Type of assay: cell-based. The note with it: HEK293; 100 nM; recombinant HEK-293 cells with human serotonin transporter; read-out: Inhibition % at 100 nM 5-HT reuptake. On the procedure: Serotonin Transporter Reuptake Inhibition Assay
The recombinant HEK-293 cells with human serotonin transporter were plated. Test compounds described in table 1 were pre-incubated with cells (2×10^5/ml) in modified Tris-HEPES buffer pH 7.1 for 20 minutes at 25° C. and then they were incubated for additional 10 minutes after 65 nM of [^3H]Serotonin was added. Bound cells were filtered and counted to determine [^3H]Serotonin uptake. Reduction of [^3H]Serotonin uptake by 50 percent or more (≧50%) relative to 10 μM fluoxetine indicates significant inhibitory activity.

The target in assay [2] is T2, human recombinant norepinephrine transporter (Homo sapiens, UniProt P23975).
T2 construct: expressed in transfected cells; host or cells: MDCK
T2 sequence (P23975 whole entry): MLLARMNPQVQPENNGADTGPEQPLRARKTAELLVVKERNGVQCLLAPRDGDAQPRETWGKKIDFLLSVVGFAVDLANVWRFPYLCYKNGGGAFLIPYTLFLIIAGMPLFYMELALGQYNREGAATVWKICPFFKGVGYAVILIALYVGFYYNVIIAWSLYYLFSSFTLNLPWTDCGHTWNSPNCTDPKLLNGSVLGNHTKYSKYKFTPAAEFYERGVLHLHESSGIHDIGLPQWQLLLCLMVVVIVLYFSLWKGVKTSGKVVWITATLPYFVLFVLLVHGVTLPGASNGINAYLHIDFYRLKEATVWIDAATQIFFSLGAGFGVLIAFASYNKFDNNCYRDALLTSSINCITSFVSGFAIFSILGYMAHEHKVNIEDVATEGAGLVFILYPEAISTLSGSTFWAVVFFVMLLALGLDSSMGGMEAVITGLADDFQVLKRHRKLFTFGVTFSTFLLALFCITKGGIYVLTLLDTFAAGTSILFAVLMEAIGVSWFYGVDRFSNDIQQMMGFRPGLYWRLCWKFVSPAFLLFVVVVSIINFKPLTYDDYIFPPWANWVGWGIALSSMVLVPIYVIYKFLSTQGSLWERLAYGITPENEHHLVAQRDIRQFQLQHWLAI
The experiment in a line: Norepinephrine transporter reuptake inhibition assay ([3H]Norepinephrine uptake). It counts as cell-based. As to conditions: 100 nM; MDCK cells with human recombinant norepinephrine transporter; read-out: Inhibition % at 100 nM NE reuptake. As for the experimental part: Norepinephrine Transporter Reuptake Inhibition Assay
MDCK cells with stably expressed human recombinant norepinephrine transporter were plated one day. Test compounds were pre-incubated with cells (2×10^5/ml) in modified Tris-HEPES buffer pH 7.1 for 20 minutes at 25° C. and then they were incubated for additional 10 minutes after 25 nM of [^3H]Norepinephrine was added. A lysate was obtained from solubilized cells and the filtered lysate was counted to determine [^3H]Norepinephrine uptake. Reduction of [^3H]Norepinephrine uptake by 50 percent or more (≧50%) relative to 10 μM desipramine indicates significant inhibitory activity.

The target of assay [3] is T3, human recombinant dopamine transporter (Homo sapiens, UniProt Q01959).
T3 construct: expressed in transfected cells; host or cells: CHO-K1
T3 sequence (Q01959 whole entry): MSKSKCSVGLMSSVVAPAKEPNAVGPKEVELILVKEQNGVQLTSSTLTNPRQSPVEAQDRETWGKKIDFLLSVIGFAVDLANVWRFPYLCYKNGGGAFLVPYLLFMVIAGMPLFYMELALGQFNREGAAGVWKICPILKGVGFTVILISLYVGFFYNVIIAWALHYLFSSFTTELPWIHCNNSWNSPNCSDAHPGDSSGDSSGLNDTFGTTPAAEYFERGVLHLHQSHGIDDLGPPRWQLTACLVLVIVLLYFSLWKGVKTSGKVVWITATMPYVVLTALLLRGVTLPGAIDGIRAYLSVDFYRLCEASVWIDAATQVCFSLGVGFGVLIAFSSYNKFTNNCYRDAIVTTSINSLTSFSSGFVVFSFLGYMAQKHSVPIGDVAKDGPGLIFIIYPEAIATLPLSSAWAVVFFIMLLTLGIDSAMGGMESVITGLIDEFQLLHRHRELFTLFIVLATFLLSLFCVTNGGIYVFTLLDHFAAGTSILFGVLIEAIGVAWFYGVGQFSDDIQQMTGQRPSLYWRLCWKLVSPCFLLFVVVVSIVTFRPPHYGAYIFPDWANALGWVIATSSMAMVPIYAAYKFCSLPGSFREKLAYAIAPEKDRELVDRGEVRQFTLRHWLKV
Kind of assay: Dopamine transporter reuptake inhibition assay ([3H]Dopamine uptake). It counts as cell-based. The note with it: 100 nM; CHO-K1 cells with human recombinant dopamine transporter; read-out: Inhibition % at 100 nM DA reuptake. On the procedure:
Dopamine Transporter Reuptake Inhibition Assay
CHO-K1 cells with human recombinant dopamine transporter were plated. Test compounds were pre-incubated with cells (4×10^5/ml) in modified Tris-HEPES buffer pH 7.1 for 20 minutes at 25° C. and then they were incubated for additional 10 minutes after 50 nM of [^3H]Dopamine was added. A lysate is obtained from solubilized cells and counted to determine [^3H]Dopamine uptake. Reduction of [^3H]Dopamine uptake by 50 percent or more (≧50%) relative to 10 μM nomifensine indicates significant inhibitory activity.

A further assay deals with mice. The experiment in a line: Forced swimming test in mice (FST). It counts as in vivo. As to conditions: Mus musculus, 0.5 h, 30ip, reduction in duration of immobility vs control group, 30 min after administration. On the procedure:
Forced swimming Test in Mice (FST)
The Forced swimming test is an animal model based on the rodent's behavioral repertoire for screening drugs with potential antidepressant activity. As in several other models used for this goal, an uncontrollable stress stimulus produces behavioral changes that are sensitive to antidepressant treatment.
The mice were intraperitoneally treated with the test compound with an injection volume of […]. The group treated with 30% PEG400 served as a control group. Thirty minutes following administration, mice were individually forced to swim in a transparent glass vessel (14 cm high, 11.5 cm in diameter) filled with 10 cm of water at 25° C. The total duration of immobility (second) was measured during the last 4 minutes of a single 6-min test session. Mice were considered immobile when they made no further attempts to escape other than the movements necessary to keep their heads above the water. The potent ability of the compounds was determined as percent value of reduction in the duration of immobility comparing to the control group.

T1 sequence (P31645 whole entry): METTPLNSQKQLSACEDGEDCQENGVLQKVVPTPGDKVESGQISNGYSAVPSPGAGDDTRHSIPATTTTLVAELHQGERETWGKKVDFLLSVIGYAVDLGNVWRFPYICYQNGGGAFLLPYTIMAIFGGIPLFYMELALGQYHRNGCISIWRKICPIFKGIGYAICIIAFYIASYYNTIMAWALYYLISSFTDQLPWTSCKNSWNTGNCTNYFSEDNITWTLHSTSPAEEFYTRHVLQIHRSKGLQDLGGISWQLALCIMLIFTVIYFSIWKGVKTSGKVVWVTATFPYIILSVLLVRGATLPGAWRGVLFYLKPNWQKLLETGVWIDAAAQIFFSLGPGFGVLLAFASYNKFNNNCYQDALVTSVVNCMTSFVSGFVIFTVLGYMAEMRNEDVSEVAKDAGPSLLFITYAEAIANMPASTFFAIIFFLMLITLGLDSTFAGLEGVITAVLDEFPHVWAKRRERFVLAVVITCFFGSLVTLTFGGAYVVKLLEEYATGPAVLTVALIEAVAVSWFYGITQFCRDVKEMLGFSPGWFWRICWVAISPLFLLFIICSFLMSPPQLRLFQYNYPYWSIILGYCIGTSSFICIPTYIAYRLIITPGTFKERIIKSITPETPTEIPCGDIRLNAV

In general, inhibition refers to the change of the read-out against control, counted positive when it falls. On to `CN(C)CCC(c1ccc2cc(Cl)ccc2c1)n1ncnn1` (stereo not drawn) [Example 14, [3-(6-Chloro-naphthalen-2-yl)-3-tetrazol-2-yl-propyl]-dimethyl-amine], for which the inhibition at 0.1 µM stood at 46% in assay [1], 32% in assay [2] and 18% in assay [3].
For `COc1ccc2cc(C(CCN(C)C)n3ncnn3)ccc2c1` (stereo not drawn) [Example 21, [3-(6-Methoxy-naphthalen-2-yl)-3-tetrazol-2-yl-propyl]-dimethyl-amine] the same measures were 44%, 39% and 36%.
What is called inhibition in vivo is how much of the control response was suppressed. Read a high inhibition in vivo as a response far below the control. For the molecule `CNCCC(c1ccc2ccccc2c1)n1ncnn1` (stereo not drawn) [Example 119, Methyl-(3-naphthalen-2-yl-3-tetrazol-2-yl-propyl)-amine], the inhibition at 0.1 µM in assay [1] stood at 78%; in assay [2], 84%; in assay [3] it was 10%. This molecule yielded an inhibition in vivo at 30 mg/kg with mice of 43.2%.
For the molecule `CNCCC(c1ccc2cc(C)ccc2c1)n1ncnn1` (stereo not drawn) [Example 122, Methyl-[3-(6-methyl-naphthalen-2-yl)-3-tetrazol-2-yl-propyl]-amine], the inhibition at 0.1 µM in assay [1] worked out at 93%; in assay [2] it was 55%; in assay [3] it was 3%. This molecule also displayed an inhibition in vivo at 30 mg/kg in the assay on mice of 43.7%.
`CNCCC(c1cc2ccccc2cc1OC)n1nnc(C)n1` (stereo not drawn) [Example 135, [3-(3-Methoxy-naphthalen-2-yl)-3-(5-methyl-tetrazol-2-yl)-propyl]-methyl-amine]: the figures for the inhibition at 0.1 µM in assay [1], in assay [2] and in assay [3] were 47%, 17% and -1%, respectively.
On to `CNCCC(c1ccc2cc(F)ccc2c1)n1ncnn1` (stereo not drawn) [Example 136, [3-(6-Fluoro-naphthalen-2-yl)-3-tetrazol-2-yl-propyl]-methyl-amine], for which the inhibition at 0.1 µM in assay [1] stood at 59%; in assay [2], 25%; in assay [3] it was 6%.
The like results for `CNCCC(c1ccc2cc(F)ccc2c1)n1nnc(C)n1` (stereo not drawn) [Example 137, [3-(6-Fluoro-naphthalen-2-yl)-3-(5-methyl-tetrazol-2-yl)-propyl]-methyl-amine] were, in that order, 58%, 39% and 10%.
In the case of `CNCCC(c1ccc2cc(OC)ccc2c1)n1ncnn1` (stereo not drawn) [Example 166, [3-(6-Methoxy-naphthalen-2-yl)-3-tetrazol-2-yl-propyl]-methyl-amine], the figures for the inhibition at 0.1 µM in assay [1], in assay [2] and in assay [3] were 88%, 70% and 4%, respectively. In the assay on mice, the inhibition in vivo at 30 mg/kg is 28.9%.
